The values below come from patent publication US9988348B1, “Synthesis and antimicrobial use of a trithiocarbonate derivative” (KING SAUD UNIVERSITY, priority 2017, dated 2018).

≈ marks a conversion by molar mass, not a printed value. Where “and” joins values, the source holds several entries; their conditions need not be identical. Identical values can stand only once.

Format in all cases: cell-based
Assay [1] concerns Candida parapsilosus ATCC 22019. The assay is described as follows: disk diffusion assay, inhibition zone. The conditions noted are these: C. parasilosus; 4 mg/disk; soluble water compound 4. The method, then:
(§1) To evaluate antimicrobial activity of the compound 4, synthesized in our laboratory as novel anti-bacterial and anti-fungal agents, the inhibition zone diameter (mm) and the minimal inhibitory concentration were determined according to (Andrews 2001; Hudzicki 2009). The test carried out on several clinical microorganisms included Gram positive bacteria (Staphylococcus aureus ATCC and Streptococcus mutans ATCC 35668), Gram negative bacteria (Escherichia coli ATCC 25922, Salmonella typhimurium ATCC 14028 and Neisseria meningitides ATCC 1302); yeasts (Candid albicans ATCC 60193, Cryptococcus neoformans Wild strain and Candida parapsilosus ATCC 22019) and molds (Aspergillus fumigatus AUMC 8794, Penicillum chrysogenum AUMC 9476 and Fusarium sp.)
(§2) The clinical microorganisms were cultivated at least three times on suitable culture medium and incubating conditions before susceptibility test. The concentration of microbial inoculation suspensions in sterile sodium chloride solution (0.89%) were adjusted to 0.65 at 620 nm by spectrophotometer. […]
(§3) After that, the disks were dried at 25° C. under sterile conditions by safety biological cabinet. A Mueller-Hinton agar (MHA) (Scharlau Microbiogy, Spain) and a potato dextrose agar (PDA) (Scharlau, Spain) were used to perform antibacterial and antifungal test respectively. The media were prepared according to manufacturer's guidelines. To prepare one liter of MHA and one liter of PDA, 21 grams of MHA and 39 grams of PDA were dissolved in one liter of sterile distilled water, followed by sterilization at 121° C. for 15 minutes by an autoclave (HL-321, Taiwan). The sterilized media were poured in sterile plastic Petri dishes at 50° C. The plates were allowed to let the medium solidify at room temperature. 0.1 ml of microbial inoculation suspensions were spread on dried surface of medium and were kept at 25° C. for 5-10 minutes. The compound 4 and standard antimicrobial drugs discs (Table 1) were dispensed on the surface of inoculated media. The tested bacteria and fungi were incubated at 37±1° C. for 19-22 hours and at 25±1 for 48-72 hours respectively. After the incubation, the diameter of inhibition zone (millimeter) resulting from the biological activity of compound were recorded.
In general terms: A growth-free zone around the sample is the usual read-out of agar diffusion tests.

For assay [2], the system named is Streptococcus mutans ATCC 35668. Description: disk diffusion assay, inhibition zone. The conditions noted are these: S. mutans. The method, then:
as §1, §2, §3

For assay [3], the system named is Aspergillus fumigatus AUMC 8794. Description: disk diffusion assay, inhibition zone. The conditions noted are these: A. fumigatus; 4 mg/disk; soluble water compound 4. The method, then: as §1, §2, §3
Assay [4] deals with Cryptococcus neoformans Wild strain. The assay is described as follows: disk diffusion assay, inhibition zone. The following applies: C. neoformasn; 4 mg/disk; soluble water compound 4. The method, then:
as §1, §2, §3

Assay [5] has as its system Fusarium sp. Description: disk diffusion assay, inhibition zone. The following applies: Fusarium sp.; 4 mg/disk; soluble water compound 4. The method, then: as §1, §2, §3
In assay [6] the test system is Escherichia coli ATCC 25922. Description: disk diffusion assay, inhibition zone. The following applies: E. coli; 4 mg/disk; soluble water compound 4. Here is the method:
as §1, §2, §3

The test system of assay [7] is Salmonella typhimurium ATCC 14028. Description: disk diffusion assay, inhibition zone. The conditions noted are these: Sa. typhimurium; 4 mg/disk; soluble water compound 4. Here is the method: as §1, §2, §3
Assay [8] relates to Staphylococcus aureus ATCC. The assay is described as follows: disk diffusion assay, inhibition zone. The conditions noted are these: S. aureus; 4 mg/disk; soluble water compound 4. The method, then:
as §1, §2, §3

In assay [9] the test system is Penicillum chrysogenum AUMC 9476. The assay is described as follows: disk diffusion assay, inhibition zone. The following applies: P. chrysoginum; 4 mg/disk; soluble water compound 4. Here is the method: as §1, §2, §3
Assay [10] relates to Candid albicans ATCC 60193. Description: disk diffusion assay, inhibition zone. The conditions noted are these: C. albicans; 4 mg/disk; soluble water compound 4. Here is the method:
as §1, §2, §3

Assay [11] has as its system Candida parapsilosus ATCC 22019. The assay is described as follows: microdilution assay, minimal inhibitory concentration. The following applies: ATCC22019, C. parasilosus, water-soluble form. The method, then:
as §1
(§4) The minimal inhibitory concentration (MIC) of compound 4 (water-soluble form) was determined by a microdilution assay, using Mueller-Hinton broth (for bacteria) and Potato dextrose broth (for fungi). The compound 4 was dissolved in sterile culture broth (2 mg/mL). Two fold serial dilutions were carried out to obtain concentrations ranging from 2 to 0.008 mg/mL. 95 μL of each dilution were added in 96-well plates, then each well was inoculated with 5 μL of inoculation microbial suspension (5×10^8 colony form unit (CFU)/ml). The plates were incubated at suitable conditions according to tested microorganism. After the incubation, the microbial growth was detected in the wells by p-iodonitrotetrazolium violet (Sigma, USA) reagent. Each well received 20 μL of the reagent (0.5 mg/ml) and was then incubated at 37±1° C. for 30 min. A violet color indicated microbial growth in the well. The minimal inhibitory concentration (mg/ml) of the compound 4 was estimated as the lowest concentration that inhibited microbial growth.

Assay [12] relates to Streptococcus mutans ATCC 35668. The description is as above. The following applies: ATCC35668, S. mutans, water-soluble form. The method, then: as §1, §4
Assay [13] deals with Aspergillus fumigatus AUMC 8794. The description is as above. The following applies: AUMC8794, A. fumigatus, water-soluble form. The method, then:
as §1, §4

For assay [14], the system named is Cryptococcus neoformans Wild strain. The assay is described as above. The conditions noted are these: C. neoformasn, water-soluble form. Here is the method:
as §1, §4

In assay [15] the test system is Neisseria meningitides ATCC 1302. The assay is described as above. The conditions noted are these: ATCC1302, N. meningitides, water-soluble form. Here is the method:
as §1, §4

Assay [16] deals with Fusarium sp. Described as above. The following applies: water-soluble form. Here is the method: as §1, §4
Assay [17] relates to Escherichia coli ATCC 25922. Described as above. The conditions noted are these: ATCC25922, E. coli, water-soluble form. The method, then:
as §1, §4

Assay [18] has as its system Salmonella typhimurium ATCC 14028. The description is as above. The conditions noted are these: Salmonella enterica; Sa. typhimurium; water-soluble form. The method, then: as §1, §4
In assay [19] the test system is Staphylococcus aureus ATCC. The assay is described as above. The following applies: S. aureus, water-soluble form. The method, then:
as §1, §4

For assay [20], the system named is Penicillum chrysogenum AUMC 9476. The assay is described as above. The following applies: P. chrysoginum; water-soluble form. Here is the method: as §1, §4
Assay [21] deals with Candid albicans ATCC 60193. The assay is described as above. The conditions noted are these: Candida albicans, ATCC60193; C. albicans; water-soluble form. The method, then:
as §1, §4

Broadly, the MIC is the lowest concentration found to suppress growth. As to `CCOC(=O)CSC(=S)SCC(=O)OCC` [Compound 4, diethyl 2,2′-(thiocarbonylbis(sulfanediyl))diacetate], the Inhibition zone diameter was 13 ± 1 E mm in assay [1]; 20 ± 1 D mm in [2] (4 mg/disk, soluble water compound 4); 34.6 ± 0.5 A mm in assay [3]; 30 mm and 30 ± 1 B mm in [4]; 30 ± 1 B mm in [5]; 11.6 ± 0.5 E mm in assay [6]. The Inhibition zone diameter in [7] was 8.6 ± 0.5 F mm; in assay [8], 10.6 ± 0.5 F* mm; in [9] it was 30.3 ± .5 B mm; in assay [10], 20 ± 1 D mm. In addition, the “biological activity, in words” value in [2] was “very good”. Further, the MIC in [11] turned out to be 50 µg/mL (≈ 177 µM); in assay [12], 62.5 µg/mL (≈ 221 µM); in [13], 31.2 µg/mL (≈ 111 µM); in [14] it was 31.2 µg/mL (≈ 111 µM); in assay [15] it was 62.5 µg/mL (≈ 221 µM); in [16] it was 31.2 µg/mL (≈ 111 µM). Further, the MIC in assay [17] amounted to 1000 µg/mL (≈ 3540 µM); in [18] it was 2000 µg/mL (≈ 7080 µM); in [19] it was 2000 µg/mL (≈ 7080 µM); in assay [20], 31.2 µg/mL (≈ 111 µM); in assay [21], 62.5 µg/mL (≈ 221 µM).
